# Laboratory results published in patent US20250000936A1, “TREATMENT OF GEOGRAPHIC ATROPHY” (Apellis Pharmaceuticals, Inc., priority 2021, published 2025).
# System: patients with geographic atrophy (GA) secondary to age-related macular degeneration (AMD)
# Assay: DERBY Phase 3 study: GA lesion growth in study eye by fundus autofluorescence
# Type: in vivo, human
# Details: for reduction in GA lesion growth from baseline compared to sham: over 24 months; for reduction in lesion growth in the study eye versus the untreated study eye: bilateral GA; for reduction in lesion growth in the study eye versus the untreated study eye / percentage reduction versus sham pooled: 18 months
# Source text: This Example describes 12-month results from two Phase 3 multi-center, randomized, double-masked, sham-controlled studies (“DERBY” and “OAKS”) to compare the efficacy and safety of intravitreal APL-2 (pegcetacoplan, also referred to as “Study Drug” in this Example) therapy with sham injections in patients with geographic atrophy (GA) secondary to age-related macular degeneration (AMD).
# To participate in the studies, subjects must have been diagnosed with GA of the macula secondary to AMD in the study eye. At screening, male and female subjects were required to fulfill all of the following inclusion criteria to be eligible for participation in the study. If both eyes met the inclusion criteria, the eye with the worst normal luminance visual acuity at the screening visit was designated as the study eye. If both eyes had the same visual acuity, the right eye was selected as the study eye. Ocular-specific inclusion criteria applied to the study eye only, unless otherwise specified.
# The design of the DERBY and OAKS studies are schematically depicted in FIG. 2. Each subject was assigned a unique screening number after signing the informed consent. Subjects who completed the study screening assessments and met all the eligibility criteria entered the study and were randomized on Day 1. As part of the screening process, the reading center evaluated FAF, OCT, Digital Color Fundus Photograph (DCFP), Near Infrared Reflectance (NIR), and fluorescein angiography (FA) to provide an objective assessment of subject eligibility. Subjects were randomized 2:2:1:1 to receive treatment with Study Drug monthly (PM), Study Drug every other month (PEOM), sham injection monthly (SM) or sham injection every other month (SEOM), respectively.
# The Study Drug was pegcetacoplan (also referred to as “APL-2”) (see FIG. 1), which was provided for intravitreal injection at 15 mg/0.1 mL (150 mg/mL) as a sterile, isotonic solution of pegcetacoplan in acetate-buffer, pH 5.0, containing trehalose, supplied in stoppered glass vials.
# The primary endpoint in the studies was the change from baseline to Month 12 in total area of GA lesion(s) in the study eye (in mm^2) based on Fundus Autofluorescence (FAF). Key secondary endpoints included change from baseline in the mean threshold sensitivity of all points (study eye) assessed by mesopic microperimetry at Month 24; change from baseline in monocular maximum reading speed (study eye), at Month 24 as assessed by MNRead or Radner reading charts (in select sites); change from baseline in mean FRI Index score (subject-level assessment) at Month 24; and change from baseline in NL-BCVA score (study eye) at Month 24 as assessed by Early Treatment Diabetic Retinopathy Study (ETDRS) chart. Additional secondary endpoints included change from baseline in LL-BCVA score (study eye) over time as assessed by ETDRS chart; change from baseline in the total area of GA lesion(s) in the study eye (in mm^2) as assessed by FAF over time other than Month 12; change from baseline in monocular critical print size (study eye), as assessed by MNRead or Radner reading charts (in select sites) over time; change from baseline in the NEI VFQ-25 distance activity subscale score (in select sites) (subject level assessment) over time; change from baseline in the number of scotomatous points assessed by mesopic microperimetry over time; and change from baseline in the mean threshold sensitivity within 500 microns outside the GA lesion, (perilesional points) assessed by mesopic microperimetry over time.
# Two sham treatment arms (SM and SEOM) were pooled into a single control (Sham) group for analyses.
# Subjects were analyzed in the treatment arm assigned at randomization.
# Unless otherwise noted, hypothesis testing and estimation of treatment effects will be performed with a mixed effect model for repeated measure (MMRM) that includes data from all three treatment arms (PM, PEOM, and Sham). […]
# [1] = post-hoc quartiles of GA lesion growth over 18 months (FIG. 27)
substance,measurement,setting,value
"Poly(oxy-1,2-ethanediyl), α-hydro-ω-hydroxy-, 15,15′-diester with N-acetyl-L-isoleucyl-L-cysteinyl-L-valyl-1-methyl-L-tryptophyl-L-glutaminyl-L-α-aspartyl-L-tryptophylglycyl-L-alanyl-L-histidyl-L-arginyl-L-cysteinyl-L-threonyl-2-[2-(2-aminoethoxy) ethoxy]acetyl-N^6-carboxy-L-lysinamide cyclic (2->12)-(disulfide) [pegcetacoplan]",reduction of GA lesion growth versus sham,"EOM, months 18-24, p=0.0002",29%
same,reduction in GA lesion growth from baseline compared to sham,"EOM, p 0.0030 nominal",16%
same,reduction in lesion growth in the study eye versus the untreated study eye,"every other month, p<0.0001",16%
same,reduction in lesion growth in the study eye versus the untreated study eye,"monthly, p=0.0053",12%
same,reduction in GA lesion growth versus sham,"distance >250 microns, every other month, p=0.0689",19%
same,reduction in GA lesion growth versus sham,"distance >250 microns, monthly, p=0.2691",13%
same,reduction in GA lesion growth versus sham,"distance ≤250 microns, every other month, p=0.0724",12%
same,reduction in GA lesion growth versus sham,"distance ≤250 microns, monthly, p=0.0490",12%
same,percentage reduction versus sham pooled,"every other month, >50 microns, p=0.0047",24%
same,percentage reduction versus sham pooled,"every other month, >100 microns, p=0.0022",26%
same,percentage reduction versus sham pooled,"every other month, >150 microns, p=0.0076",24%
same,percentage reduction versus sham pooled,"every other month, >200 microns, p 0.0229",20%
same,reduction in GA lesion growth vs pooled sham,"every other month, month 12, p=0.0750",11%
same,"reduction in GA lesion growth, covariate-adjusted post-hoc analysis","every other month, month 18, p=0.0023",16%
same,"reduction in extrafoveal GA lesion growth, covariate-adjusted","every other month, month 18, p=0.0035",24%
same,reduction in extrafoveal GA lesion growth vs pooled sham,"every other month, month 18, p=0.0075",23%
same,reduction in GA lesion growth vs pooled sham,"every other month, month 18, p=0.0332 nominal",12%
same,"reduction in foveal GA lesion growth, covariate-adjusted","every other month, month 18, p=0.1723",9%
same,reduction in foveal GA lesion growth vs pooled sham,"every other month, month 18, p=0.5538",4%
same,reduction in GA lesion growth vs pooled sham,"every other month, months 6-12 segment (FIG. 12A)",16%
same,percentage reduction versus sham pooled,"monthly, >50 microns, p=0.0433",18%
same,percentage reduction versus sham pooled,"monthly, >100 microns, p=0.0266",20%
same,percentage reduction versus sham pooled,"monthly, >150 microns, p 0.0468",19%
same,percentage reduction versus sham pooled,"monthly, >200 microns, p=0.0985",16%
same,reduction in GA lesion growth vs pooled sham,"monthly, month 12, p=0.0528",12%
same,reduction in GA lesion growth vs pooled sham,"monthly, month 18, p 0.0254 nominal",13%
same,"reduction in GA lesion growth, covariate-adjusted post-hoc analysis","monthly, month 18, p=0.0024",16%
same,"reduction in foveal GA lesion growth, covariate-adjusted","monthly, month 18, p=0.0280",14%
same,"reduction in extrafoveal GA lesion growth, covariate-adjusted","monthly, month 18, p=0.0380",18%
same,reduction in extrafoveal GA lesion growth vs pooled sham,"monthly, month 18, p=0.0606",17%
same,reduction in foveal GA lesion growth vs pooled sham,"monthly, month 18, p=0.2015",9%
same,reduction in GA lesion growth vs pooled sham,"monthly, months 6-12 segment (FIG. 12A)",17%
same,reduction of GA lesion growth versus sham,"monthly, months 18-24, p<0.0001",36%
same,reduction in GA lesion growth from baseline compared to sham,"monthly, p=0.0004 nominal",19%
same,"decrease of patients in Q4 (fast progressors), relative to sham",[1],33%
same,"increase of patients in Q1 (slow progressors), relative to sham",[1],15%
